Assay [1] deals with Melanocortin receptor 3 (Homo sapiens, UniProt P41968).
The target in assay [2] is Neuronal acetylcholine receptor subunit alpha-4 (Homo sapiens, UniProt P43681).
The target of assay [3] is 5-hydroxytryptamine receptor 2B (Homo sapiens, UniProt P41595). It is filed as functional, cell-based.
Assay [4] has as its target T1, B2 bradykinin receptor (Homo sapiens, UniProt P30411).
T1 sequence (P30411 whole entry): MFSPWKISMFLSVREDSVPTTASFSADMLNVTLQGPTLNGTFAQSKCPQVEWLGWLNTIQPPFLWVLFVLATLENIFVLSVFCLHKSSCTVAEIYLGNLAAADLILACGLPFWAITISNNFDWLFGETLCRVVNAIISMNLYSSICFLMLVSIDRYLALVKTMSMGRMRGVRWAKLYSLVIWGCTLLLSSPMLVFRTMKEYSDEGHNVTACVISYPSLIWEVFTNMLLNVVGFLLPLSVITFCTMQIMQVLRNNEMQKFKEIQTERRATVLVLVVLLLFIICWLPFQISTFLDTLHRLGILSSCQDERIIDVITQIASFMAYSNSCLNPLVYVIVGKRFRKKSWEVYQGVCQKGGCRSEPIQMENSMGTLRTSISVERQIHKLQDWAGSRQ

Assay [5] addresses T2, Alpha-2C adrenergic receptor (Homo sapiens, UniProt P18825).
T2 sequence (P18825 whole entry): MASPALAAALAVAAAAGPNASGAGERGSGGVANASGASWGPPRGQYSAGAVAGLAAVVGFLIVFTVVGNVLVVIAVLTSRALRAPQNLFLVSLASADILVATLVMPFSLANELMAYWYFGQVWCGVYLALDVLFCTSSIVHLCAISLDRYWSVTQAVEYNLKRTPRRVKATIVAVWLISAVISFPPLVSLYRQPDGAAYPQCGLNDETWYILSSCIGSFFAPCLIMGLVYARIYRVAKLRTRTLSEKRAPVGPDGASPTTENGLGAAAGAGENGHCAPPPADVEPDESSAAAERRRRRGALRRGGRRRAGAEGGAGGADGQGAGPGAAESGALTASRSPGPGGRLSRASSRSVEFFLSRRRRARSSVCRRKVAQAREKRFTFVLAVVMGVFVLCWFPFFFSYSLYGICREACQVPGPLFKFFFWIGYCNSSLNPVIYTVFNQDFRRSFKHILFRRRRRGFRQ
The format is functional.

The target in assay [6] is T3, Progesterone receptor (Homo sapiens, UniProt P06401).
T3 sequence (P06401 whole entry): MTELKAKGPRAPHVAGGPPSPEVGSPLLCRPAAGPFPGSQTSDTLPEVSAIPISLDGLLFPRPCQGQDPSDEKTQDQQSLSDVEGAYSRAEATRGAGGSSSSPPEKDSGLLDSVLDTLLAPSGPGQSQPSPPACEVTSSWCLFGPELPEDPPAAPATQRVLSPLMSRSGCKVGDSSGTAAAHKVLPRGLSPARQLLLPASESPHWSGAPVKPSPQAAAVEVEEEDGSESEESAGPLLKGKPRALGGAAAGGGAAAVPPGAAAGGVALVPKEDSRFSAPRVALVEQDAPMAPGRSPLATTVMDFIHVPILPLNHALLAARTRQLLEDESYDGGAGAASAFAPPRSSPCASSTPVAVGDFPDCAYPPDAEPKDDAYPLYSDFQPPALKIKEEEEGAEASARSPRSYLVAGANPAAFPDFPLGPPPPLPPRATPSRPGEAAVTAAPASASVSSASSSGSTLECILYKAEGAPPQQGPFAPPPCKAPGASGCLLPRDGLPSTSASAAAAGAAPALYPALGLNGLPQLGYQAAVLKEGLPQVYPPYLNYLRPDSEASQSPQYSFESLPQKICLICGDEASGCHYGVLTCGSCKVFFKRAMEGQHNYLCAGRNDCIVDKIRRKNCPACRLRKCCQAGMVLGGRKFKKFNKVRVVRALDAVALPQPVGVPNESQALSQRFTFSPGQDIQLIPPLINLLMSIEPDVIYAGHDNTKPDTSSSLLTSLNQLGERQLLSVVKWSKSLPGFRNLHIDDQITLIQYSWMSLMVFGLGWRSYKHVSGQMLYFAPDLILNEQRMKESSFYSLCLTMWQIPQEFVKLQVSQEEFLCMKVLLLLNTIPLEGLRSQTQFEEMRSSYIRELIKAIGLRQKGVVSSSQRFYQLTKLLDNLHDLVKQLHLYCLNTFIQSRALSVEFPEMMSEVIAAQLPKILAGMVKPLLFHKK
It is filed as functional.

In assay [7] the target is T4, Thromboxane A2 receptor (Homo sapiens, UniProt P21731).
T4 sequence (P21731 whole entry): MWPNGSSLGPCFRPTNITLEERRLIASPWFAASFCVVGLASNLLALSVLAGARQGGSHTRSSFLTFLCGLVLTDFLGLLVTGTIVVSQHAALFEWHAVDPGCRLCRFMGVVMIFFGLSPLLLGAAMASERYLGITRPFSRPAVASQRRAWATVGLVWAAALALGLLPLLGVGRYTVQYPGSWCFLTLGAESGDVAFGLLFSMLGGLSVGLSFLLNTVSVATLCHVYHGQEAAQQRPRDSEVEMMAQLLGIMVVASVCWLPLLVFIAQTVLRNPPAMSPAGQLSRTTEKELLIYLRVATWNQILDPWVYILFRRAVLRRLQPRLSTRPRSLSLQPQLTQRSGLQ

The target of assay [8] is Gamma-aminobutyric acid receptor subunit alpha-1 (Rattus norvegicus, UniProt P62813).
Sequence of Gamma-aminobutyric acid receptor subunit alpha-1 (P62813 whole entry): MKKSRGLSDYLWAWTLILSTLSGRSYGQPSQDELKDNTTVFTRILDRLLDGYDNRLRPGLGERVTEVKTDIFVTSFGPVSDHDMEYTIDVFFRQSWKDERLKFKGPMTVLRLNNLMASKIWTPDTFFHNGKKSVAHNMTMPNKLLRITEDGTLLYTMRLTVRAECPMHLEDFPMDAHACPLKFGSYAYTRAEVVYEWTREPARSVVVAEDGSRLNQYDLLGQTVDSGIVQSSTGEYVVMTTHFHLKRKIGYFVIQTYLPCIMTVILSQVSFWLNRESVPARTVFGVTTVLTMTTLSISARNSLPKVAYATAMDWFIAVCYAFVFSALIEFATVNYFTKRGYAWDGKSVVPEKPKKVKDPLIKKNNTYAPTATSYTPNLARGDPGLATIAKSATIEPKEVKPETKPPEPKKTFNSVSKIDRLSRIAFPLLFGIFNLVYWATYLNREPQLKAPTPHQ
The target of assay [9] is D(1A) dopamine receptor (Homo sapiens, UniProt P21728). It is filed as functional, cell-based.
Sequence of D(1A) dopamine receptor (P21728 whole entry): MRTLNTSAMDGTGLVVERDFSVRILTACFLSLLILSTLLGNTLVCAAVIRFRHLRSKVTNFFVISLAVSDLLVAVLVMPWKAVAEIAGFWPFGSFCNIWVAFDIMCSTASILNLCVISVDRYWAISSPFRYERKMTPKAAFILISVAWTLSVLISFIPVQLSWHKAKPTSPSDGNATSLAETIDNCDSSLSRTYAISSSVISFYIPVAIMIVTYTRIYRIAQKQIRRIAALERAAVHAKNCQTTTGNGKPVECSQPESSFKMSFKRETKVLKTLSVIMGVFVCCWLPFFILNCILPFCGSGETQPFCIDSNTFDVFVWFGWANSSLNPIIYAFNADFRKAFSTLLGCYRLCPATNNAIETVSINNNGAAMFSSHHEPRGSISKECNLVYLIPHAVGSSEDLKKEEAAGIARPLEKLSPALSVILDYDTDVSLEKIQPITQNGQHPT
Assay [10] concerns the target T5, Alpha-2A adrenergic receptor (Homo sapiens, UniProt P08913).
T5 sequence (P08913 whole entry): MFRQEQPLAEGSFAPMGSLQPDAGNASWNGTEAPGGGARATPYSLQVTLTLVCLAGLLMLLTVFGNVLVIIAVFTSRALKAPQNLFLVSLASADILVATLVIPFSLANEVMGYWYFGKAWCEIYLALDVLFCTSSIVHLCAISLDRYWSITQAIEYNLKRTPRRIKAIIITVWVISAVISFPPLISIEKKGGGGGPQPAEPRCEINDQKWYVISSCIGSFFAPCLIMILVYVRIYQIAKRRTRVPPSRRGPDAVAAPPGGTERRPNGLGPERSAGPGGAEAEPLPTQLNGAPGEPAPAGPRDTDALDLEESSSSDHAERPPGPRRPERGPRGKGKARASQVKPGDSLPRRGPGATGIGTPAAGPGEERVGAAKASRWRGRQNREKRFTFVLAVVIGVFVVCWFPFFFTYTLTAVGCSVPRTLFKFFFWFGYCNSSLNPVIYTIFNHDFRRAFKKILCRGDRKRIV
It is filed as functional, cell-based.

For assay [11], the target named is Sodium-dependent noradrenaline transporter (Homo sapiens, UniProt P23975).
Sequence of Sodium-dependent noradrenaline transporter (P23975 whole entry): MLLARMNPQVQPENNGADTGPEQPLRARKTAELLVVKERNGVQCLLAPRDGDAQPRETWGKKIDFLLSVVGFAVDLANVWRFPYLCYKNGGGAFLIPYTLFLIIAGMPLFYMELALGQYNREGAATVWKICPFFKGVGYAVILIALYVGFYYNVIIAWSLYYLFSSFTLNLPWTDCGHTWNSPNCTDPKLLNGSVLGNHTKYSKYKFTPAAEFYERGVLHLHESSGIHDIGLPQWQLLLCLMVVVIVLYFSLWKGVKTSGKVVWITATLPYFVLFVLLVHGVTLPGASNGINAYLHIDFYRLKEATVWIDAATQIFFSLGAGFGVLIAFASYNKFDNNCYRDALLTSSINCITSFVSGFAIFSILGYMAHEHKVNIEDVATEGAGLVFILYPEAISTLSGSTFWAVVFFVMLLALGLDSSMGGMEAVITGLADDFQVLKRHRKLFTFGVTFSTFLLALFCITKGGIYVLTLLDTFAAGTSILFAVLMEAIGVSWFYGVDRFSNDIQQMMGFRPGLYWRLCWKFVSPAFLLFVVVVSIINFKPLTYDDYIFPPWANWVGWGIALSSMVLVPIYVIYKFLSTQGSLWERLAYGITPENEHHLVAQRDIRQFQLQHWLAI

Where a SMILES comes first, the peptide text is derived from it. [ ]: non-standard residue; d: D form. pGlu = O=C1CC[C@@H](C(=O)O)N1; Thz = O=C(O)[C@@H]1CSCN1
Further: assay procedure not described here.

Sequence of Neuronal acetylcholine receptor subunit alpha-4 (P43681 whole entry): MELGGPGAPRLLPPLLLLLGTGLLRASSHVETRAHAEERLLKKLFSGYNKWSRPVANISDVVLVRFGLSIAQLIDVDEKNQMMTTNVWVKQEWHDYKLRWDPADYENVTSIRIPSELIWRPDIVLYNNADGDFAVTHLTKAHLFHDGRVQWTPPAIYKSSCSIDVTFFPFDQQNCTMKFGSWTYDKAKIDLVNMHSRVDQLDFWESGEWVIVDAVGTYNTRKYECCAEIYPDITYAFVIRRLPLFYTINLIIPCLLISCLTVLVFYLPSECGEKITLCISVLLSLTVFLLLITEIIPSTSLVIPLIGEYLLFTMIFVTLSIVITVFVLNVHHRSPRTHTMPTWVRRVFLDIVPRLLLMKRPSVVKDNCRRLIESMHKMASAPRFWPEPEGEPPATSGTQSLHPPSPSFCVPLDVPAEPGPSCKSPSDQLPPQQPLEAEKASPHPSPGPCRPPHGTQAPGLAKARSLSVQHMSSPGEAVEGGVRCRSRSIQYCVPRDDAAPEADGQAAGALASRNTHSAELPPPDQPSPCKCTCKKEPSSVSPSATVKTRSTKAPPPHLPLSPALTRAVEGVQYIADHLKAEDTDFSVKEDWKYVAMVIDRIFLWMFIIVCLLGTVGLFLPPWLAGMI
Sequence of 5-hydroxytryptamine receptor 2B (P41595 whole entry): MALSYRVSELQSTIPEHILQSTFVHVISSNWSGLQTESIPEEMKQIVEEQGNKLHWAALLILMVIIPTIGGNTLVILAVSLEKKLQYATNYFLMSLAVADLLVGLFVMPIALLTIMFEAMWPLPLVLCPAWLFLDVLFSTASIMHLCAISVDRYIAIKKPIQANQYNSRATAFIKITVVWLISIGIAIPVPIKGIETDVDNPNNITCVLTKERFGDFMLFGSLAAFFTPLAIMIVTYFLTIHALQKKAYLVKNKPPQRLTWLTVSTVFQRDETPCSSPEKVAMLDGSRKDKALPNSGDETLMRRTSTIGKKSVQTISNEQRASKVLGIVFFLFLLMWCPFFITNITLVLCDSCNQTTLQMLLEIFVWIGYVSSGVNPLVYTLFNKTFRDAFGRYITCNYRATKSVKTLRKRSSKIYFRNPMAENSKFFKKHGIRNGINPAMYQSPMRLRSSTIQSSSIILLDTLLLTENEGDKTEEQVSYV
Sequence of Melanocortin receptor 3 (P41968 whole entry): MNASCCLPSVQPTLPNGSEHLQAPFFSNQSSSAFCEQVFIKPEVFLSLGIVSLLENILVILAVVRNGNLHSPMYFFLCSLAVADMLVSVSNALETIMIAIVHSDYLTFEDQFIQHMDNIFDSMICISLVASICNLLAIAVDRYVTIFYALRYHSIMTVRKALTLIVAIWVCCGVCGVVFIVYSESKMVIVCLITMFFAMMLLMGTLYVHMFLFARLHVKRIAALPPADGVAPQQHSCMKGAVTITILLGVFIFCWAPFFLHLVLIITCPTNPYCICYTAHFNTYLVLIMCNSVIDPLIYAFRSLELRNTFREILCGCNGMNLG

A word on the AC50: it is the concentration at which the activity in the assay is half-maximal. Low readings indicate greater potency, high ones weaker potency. For `NC(=O)NC(=O)Cc1ccccc1` [PHENACEMIDE], the AC50 in assay [1], in assay [2], in assay [3], in assay [4], in [5] and in assay [6] was greater than 10 µM in each case. Also, the AC50 in assay [7], in assay [8], in [9], in assay [10] and in assay [11] was greater than 10 µM each time.
With `OC[C@H]1O[C@@H](Oc2cc(O)cc(/C=C/c3ccc(O)cc3)c2)[C@H](O)[C@@H](O)[C@@H]1O` [PICEID], the AC50 in assay [1], in assay [2], in assay [3], in [4], in [5] and in [6] was greater than 30 µM each time. The AC50 in assay [7], in assay [8], in assay [9], in assay [10] and in assay [11] was greater than 30 µM each time.
In the case of `O=C1CC[C@@H](C(=O)N2CSC[C@H]2C(=O)O)N1` [PIDOTIMOD] ([pGlu]-[Thz]-OH), the half-maximal activity concentration (AC50) in assay [1], in assay [2], in assay [3], in [4], in assay [5] and in assay [6] was greater than 30 µM throughout. Moreover, the AC50 in assay [7], in assay [8], in [9], in assay [10] and in assay [11] was greater than 30 µM in each case.
With `COc1cc(C(=O)OCc2cccc(COC(=O)c3cc(OC)c(OC)c(OC)c3)n2)cc(OC)c1OC` [PIROZADIL], the concentration at half-maximal activity (AC50) in assay [1], in assay [2], in [3], in assay [4], in [5] and in assay [6] was greater than 30 µM in each case. Also, the AC50 in assay [7], in assay [8], in [9], in assay [10] and in assay [11] was greater than 30 µM in each case.
As to `CCCN(CCC)S(=O)(=O)c1ccc(C(=O)O)cc1` [PROBENECID], the half-maximal activity concentration (AC50) in assay [1], in assay [2], in [3], in assay [4], in [5] and in assay [6] was greater than 10 µM each time. In addition, the concentration at half-maximal activity (AC50) in [7], in assay [8], in [9], in assay [10] and in assay [11] was greater than 10 µM each time.
For `CCC(NC(C)C)C(O)c1ccc(O)c2[nH]c(=O)ccc12` (stereo unspecified) [PROCATEROL], the AC50 in [1], in [2], in [3], in [4], in [5] and in [6] was greater than 30 µM in each case. The AC50 in assay [7], in [8], in assay [9], in [10] and in assay [11] was greater than 30 µM each time.
On to `CCc1nc(N)nc(N)c1-c1ccc(Cl)cc1` [PYRIMETHAMINE], for which the AC50 in [1] is greater than 10 µM; in assay [2], greater than 10 µM; in assay [3], 11.3 µM; in [4] it was greater than 10 µM; in [5], greater than 30 µM; in [6] it was greater than 10 µM. The AC50 in assay [7] is greater than 10 µM; in [8], greater than 10 µM; in assay [9], greater than 10 µM; in [10] it was greater than 30 µM; in assay [11] it was greater than 30 µM.
Take `CC1=C(/C=C/C(C)=C/C=C/C(C)=C/CO)C(C)(C)CCC1` [RETINOL]: the AC50 in assay [1] is greater than 10 µM; in assay [2] it was greater than 10 µM; in assay [3] it was greater than 10 µM; in assay [4], greater than 10 µM; in [5], greater than 10 µM; in assay [6], greater than 30 µM. For the same molecule, the AC50 in assay [7], in [8], in [9], in [10] and in assay [11] was greater than 10 µM in each case.
Consider `C=CC[N+]1([C@H]2C[C@H]3[C@@H]4CC[C@H]5C[C@H](O)[C@@H](N6CCOCC6)C[C@]5(C)[C@H]4CC[C@]3(C)[C@H]2OC(C)=O)CCCC1` [ROCURONIUM], for which the AC50 in [1], in assay [2], in assay [3], in assay [4], in [5] and in [6] was greater than 30 µM throughout. Besides, the AC50 in [7], in assay [8], in assay [9], in assay [10] and in assay [11] was greater than 30 µM in each case.
`CCCN1CCCC[C@H]1C(=O)Nc1c(C)cccc1C` [ROPIVACAINE]: the AC50 in [1], in assay [2], in [3], in assay [4], in assay [5] and in [6] was greater than 30 µM each time. Further, the concentration at half-maximal activity (AC50) in assay [7], in assay [8], in assay [9], in assay [10] and in assay [11] was greater than 30 µM each time.
Turning to `Cc1cc(C)nc(NS(=O)(=O)c2ccc(N)cc2)n1` [SULFAMETHAZINE], the half-maximal activity concentration (AC50) in assay [1] was greater than 10 µM; in assay [2], greater than 10 µM; in [3], greater than 10 µM; in assay [4], greater than 10 µM; in [5], greater than 30 µM; in [6], greater than 10 µM. Further, the AC50 is greater than 10 µM in assay [7]; greater than 10 µM in assay [8]; greater than 30 µM in [9]; greater than 10 µM in assay [10]; greater than 10 µM in assay [11].

The values are drawn from ChEMBL document CHEMBL5291721, “A preclinical secondary pharmacology resource illuminates target-adverse drug reaction associations of marketed drugs” (Nat Commun, 2023).
